Results from ChEMBL document CHEMBL1201862, “PubChem BioAssay data set” (2004).
Calls of active or inactive are those of the source.

What was measured:
[1] = Trypanosoma cruzi growth suppression in host cells – NIH3T3 host cells, beta-gal luminescence, confirmation (AID 2044); assay type: functional, cell-based;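 also: intracellular parasites grown in NIH/3T3 mouse fibroblasts as host cells; luminescent beta-galactosidase reporter signal from transgenic T. cruzi replicating inside host cells; inhibitors lower the luminescence signal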
[2] = NIH3T3 cell viability loss – ATP luminescence, mouse fibroblasts, counter-screen, dose response (AID 2010); assay type: functional, cell-based;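 also: cells exposed to compound for about 90 hours before reading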
Protein RecA = target: T1, Protein RecA (Mycobacterium tuberculosis, UniProt P9WHJ3); experiment: Fluorescence Cell-Free Homogeneous Dose Retest to Identify Inhibitors of RecA-Intein Splicing Activity. [Related pubchem assays (depositor defined):AID2097, AID2223, AID489010, AID492950]; assay type: functional
T1 sequence (P9WHJ3 whole entry): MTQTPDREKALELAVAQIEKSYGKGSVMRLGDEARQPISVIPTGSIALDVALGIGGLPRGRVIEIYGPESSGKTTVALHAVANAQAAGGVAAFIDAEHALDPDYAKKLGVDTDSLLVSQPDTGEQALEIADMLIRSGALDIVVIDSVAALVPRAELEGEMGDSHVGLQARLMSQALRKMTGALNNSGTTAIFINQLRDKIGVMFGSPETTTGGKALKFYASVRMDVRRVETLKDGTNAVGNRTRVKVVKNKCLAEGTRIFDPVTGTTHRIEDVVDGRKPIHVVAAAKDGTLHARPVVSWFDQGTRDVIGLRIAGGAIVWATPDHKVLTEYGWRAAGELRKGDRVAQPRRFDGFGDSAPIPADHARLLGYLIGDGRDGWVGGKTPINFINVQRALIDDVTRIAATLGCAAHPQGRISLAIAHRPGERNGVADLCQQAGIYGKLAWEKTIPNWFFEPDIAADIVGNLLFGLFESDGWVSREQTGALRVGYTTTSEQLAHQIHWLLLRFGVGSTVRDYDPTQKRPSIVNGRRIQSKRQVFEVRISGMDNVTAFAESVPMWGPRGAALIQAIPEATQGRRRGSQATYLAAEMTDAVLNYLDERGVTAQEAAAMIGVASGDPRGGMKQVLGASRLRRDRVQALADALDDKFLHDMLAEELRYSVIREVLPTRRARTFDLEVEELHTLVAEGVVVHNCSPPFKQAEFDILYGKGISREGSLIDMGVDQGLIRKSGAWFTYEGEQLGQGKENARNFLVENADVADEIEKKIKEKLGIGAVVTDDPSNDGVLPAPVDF

[3] = target: T2, Replicative DNA helicase DnaB (Mycobacterium tuberculosis, UniProt P9WMR3); experiment: DnaB intein splicing inhibitors, dose response, biochemical, cell-free fluorescence (AID 449749); assay type: functional
T2 sequence (P9WMR3 whole entry): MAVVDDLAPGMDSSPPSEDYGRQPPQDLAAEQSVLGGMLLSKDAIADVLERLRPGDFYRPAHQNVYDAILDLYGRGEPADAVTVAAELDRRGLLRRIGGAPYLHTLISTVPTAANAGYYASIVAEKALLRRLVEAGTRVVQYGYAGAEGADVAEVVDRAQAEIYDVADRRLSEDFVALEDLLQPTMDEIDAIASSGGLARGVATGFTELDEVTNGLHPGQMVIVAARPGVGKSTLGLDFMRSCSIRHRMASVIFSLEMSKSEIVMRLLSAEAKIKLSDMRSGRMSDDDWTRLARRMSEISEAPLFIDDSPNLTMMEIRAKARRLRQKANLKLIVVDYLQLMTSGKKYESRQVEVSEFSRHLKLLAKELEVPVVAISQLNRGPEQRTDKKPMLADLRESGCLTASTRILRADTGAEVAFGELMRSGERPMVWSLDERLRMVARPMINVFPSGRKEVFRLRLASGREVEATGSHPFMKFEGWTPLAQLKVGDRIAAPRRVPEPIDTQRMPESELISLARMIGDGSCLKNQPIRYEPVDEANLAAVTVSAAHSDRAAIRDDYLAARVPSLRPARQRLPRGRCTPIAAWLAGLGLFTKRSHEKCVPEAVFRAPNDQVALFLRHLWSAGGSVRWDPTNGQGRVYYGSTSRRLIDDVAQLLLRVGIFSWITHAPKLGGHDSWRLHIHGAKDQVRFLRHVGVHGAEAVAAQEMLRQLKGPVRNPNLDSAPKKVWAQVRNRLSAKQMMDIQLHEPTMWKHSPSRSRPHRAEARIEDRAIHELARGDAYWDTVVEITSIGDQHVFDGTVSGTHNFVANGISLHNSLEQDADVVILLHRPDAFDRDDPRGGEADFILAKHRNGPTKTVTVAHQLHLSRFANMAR

Cytochrome P450 3A4 = Cytochrome P450 3A4 (Homo sapiens, UniProt P08684);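 also: CYP3A4 tested as one member of a cytochrome P450 panel screen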
Sequence of Cytochrome P450 3A4 (P08684 whole entry): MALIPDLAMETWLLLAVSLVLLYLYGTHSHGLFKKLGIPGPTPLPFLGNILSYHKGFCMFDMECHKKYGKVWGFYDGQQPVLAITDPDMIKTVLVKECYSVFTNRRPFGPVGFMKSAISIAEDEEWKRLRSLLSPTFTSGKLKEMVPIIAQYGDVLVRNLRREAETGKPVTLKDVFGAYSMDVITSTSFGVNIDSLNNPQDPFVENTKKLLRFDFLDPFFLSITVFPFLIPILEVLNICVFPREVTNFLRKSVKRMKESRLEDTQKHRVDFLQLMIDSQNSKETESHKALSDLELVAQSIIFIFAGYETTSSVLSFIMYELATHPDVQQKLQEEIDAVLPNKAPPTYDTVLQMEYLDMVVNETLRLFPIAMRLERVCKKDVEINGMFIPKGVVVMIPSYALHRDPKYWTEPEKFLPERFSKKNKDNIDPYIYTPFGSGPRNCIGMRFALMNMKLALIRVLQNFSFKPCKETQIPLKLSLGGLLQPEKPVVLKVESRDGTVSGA

Cytochrome P450 2C19 = Cytochrome P450 2C19 (Homo sapiens, UniProt P33261); experiment: Cytochrome panel assay with activity outcomes. Panel member name: p450-cyp2c19 Compounds with AC50 equal or less than 10 uM are considered active; assay type: functional
Sequence of Cytochrome P450 2C19 (P33261 whole entry): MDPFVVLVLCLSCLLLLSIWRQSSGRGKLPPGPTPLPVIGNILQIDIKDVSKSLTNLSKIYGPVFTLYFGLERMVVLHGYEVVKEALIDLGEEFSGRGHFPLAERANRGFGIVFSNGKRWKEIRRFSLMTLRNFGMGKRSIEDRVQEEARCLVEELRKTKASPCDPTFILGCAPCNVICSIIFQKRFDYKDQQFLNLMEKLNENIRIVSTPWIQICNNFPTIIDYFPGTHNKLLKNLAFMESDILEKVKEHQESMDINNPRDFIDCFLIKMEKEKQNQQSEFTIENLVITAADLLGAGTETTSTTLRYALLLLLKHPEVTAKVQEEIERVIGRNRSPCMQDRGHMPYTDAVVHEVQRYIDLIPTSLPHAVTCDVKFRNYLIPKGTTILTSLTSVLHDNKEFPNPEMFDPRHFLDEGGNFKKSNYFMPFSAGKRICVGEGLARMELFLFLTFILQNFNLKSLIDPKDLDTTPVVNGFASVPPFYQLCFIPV

[4] = system: Streptococcus sp. 'group A'; experiment: Streptococcus pyogenes SK(-)GAS viability under kanamycin – luminescence, BacTiterGlo, confirmation, counter-screen for streptokinase expression inhibitor project, dose response (AID 1900); assay type: functional, organism-based
Streptococcus = experiment: GAS UMAA2166 growth inhibition – luminescence, BacTiterGlo, counter-screen for streptokinase expression inhibitor project, dose response (AID 1915); assay type: functional, organism-based;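 also: potency for reduction of bacterial viability or growth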

CN1CCN(CCOc2ccc(Cc3ccccc3)cc2)CC1
EC50 [1]: 0.378 µM (active)
EC50 [2]: > 60 µM (not active)

COc1ccc2ccccc2c1CNC(C)CCc1ccccc1 (configuration not stated)
EC50 [1]: 2.94 µM (active)
EC50 [2]: > 60 µM (not active)

Cc1cc(C)c2nc(N(CCCN(C)C)C(=O)c3ccc(S(=O)(=O)N4CC(C)OC(C)C4)cc3)sc2c1 (configuration not stated)
EC50 [1]: 0.297 µM (active)
EC50 [2]: > 30 µM (not active)

CC(C)(C)c1ccc(-c2nc3c(C#N)c(-c4ccc5c(c4)OCO5)ccn3n2)cc1
EC50 [1]: 1.46 µM (active)
EC50 [2]: > 60 µM (not active)

[O-][n+]1c2c(nc3c1-c1ccccc1C3O)CCCC2 (configuration not stated)
EC50 (Protein RecA): 18.6 µM (active)
AC50 [3]: 19.4 µM (active)

O=C(Oc1ccc(-n2cnnn2)cc1)c1ccco1
EC50 (Protein RecA): 12.7 µM (active)
AC50 [3]: 15.3 µM (active)

CCOC(=O)C(C)Sc1ncc(OC)c(Sc2ccc(Cl)cc2)n1 (configuration not stated)
AC50 (Cytochrome P450 3A4): 20 µM (inconclusive)

COc1cc(CNCCc2ccccc2)ccc1OCC(=O)NC(C)(C)C
AC50 (Cytochrome P450 2C19; read-out: AC50): 28.2 µM (inconclusive)

O=C(Nc1cccc(F)c1)Nc1ccccn1
AC50 (Cytochrome P450 2C19; read-out: AC50): 17.8 µM (inconclusive)

COC(=O)c1sc(N)c(C(=O)OC)c1Cn1ncc(Cl)c(Cl)c1=O
EC50 (Protein RecA): 0.541 µM (active)
AC50 [3]: 2.66 µM (active)

O=C(O)CN1CCN(Cc2ccccc2Cl)C1=O
AC50 (Cytochrome P450 3A4): 28.2 µM (inconclusive)

COc1ccccc1CN1CC[C@@]2(CCCN(S(C)(=O)=O)C2)C1
AC50 (Cytochrome P450 3A4): 20 µM (inconclusive)

COc1cccc(Cn2c(=O)c(C)nc3cnc(N4CCN(C)CC4)nc32)c1
AC50 (Cytochrome P450 2C19; read-out: AC50): 39.8 µM (inconclusive)

CCCc1n[nH]c2c1C(c1ccc(OC(=O)N3CCOCC3)c(OC)c1)C(C#N)=C(N)O2 (configuration not stated)
EC50 (Protein RecA): 10 µM (active)
AC50 [3]: 32.2 µM (active)

CC(=O)NS(=O)(=O)c1ccc(NC(=S)NC(=O)C(C)(C)C)cc1
AC50 (Cytochrome P450 2C19): inconclusive

COc1cc(Cl)cc(/C=C/c2ccc3cccc(O)c3n2)c1OC
EC50 [4]: 0.851 µM (active)
EC50 (Streptococcus): 1.85 µM (active)

Cc1ccccc1-c1nc(-c2ccc(NC(=O)c3cccs3)cc2)no1
AC50 (Cytochrome P450 3A4): 39.8 µM (inconclusive)

Cn1c(=O)c(-c2ccc(Cl)cc2)nc2cnc(N3CCNCC3)nc21
AC50 (Cytochrome P450 3A4): 20 µM (inconclusive)

CCOC(=O)c1c(N=C(S)N2CCN(C)CC2)sc(C)c1-c1ccccc1
EC50 [1]: 0.467 µM (active)
EC50 [4]: 6.75 µM (active)
EC50 [2]: > 30 µM (not active)
EC50 (Streptococcus): > 150 µM (not active)

Cc1ccc(/C=C/c2ccc(=O)n(Cc3ccc(Cl)cc3Cl)n2)cc1
AC50 (Cytochrome P450 2C19; read-out: AC50): 4.47 µM (inconclusive)

Cc1ccc(C)n1N1C(=O)/C(=C\c2ccc(Cl)cc2)SC1=S
AC50 (Cytochrome P450 3A4): 15.8 µM (inconclusive)

Cc1ccc(C2C(C#N)=C(N)Oc3[nH]c(-c4ccccc4)nc32)o1 (configuration not stated)
EC50 (Protein RecA): 5.11 µM (active)
AC50 [3]: 21.5 µM (active)

COc1ncc2nc(-c3cc(F)cc(F)c3)c(=O)n(C[C@H]3CCCO3)c2n1
AC50 (Cytochrome P450 3A4): 25.1 µM (inconclusive)
AC50 (Cytochrome P450 2C19; read-out: AC50): 31.6 µM (inconclusive)

O=C(Nc1ccccc1)N1CC[C@@]2(CCCN(C(=O)c3cnccn3)C2)C1
AC50 (Cytochrome P450 3A4): 15.8 µM (inconclusive)

CCOc1ccc(CN2CCN(CC3=Cc4cccc(OC)c4OC3)CC2CCO)cc1 (configuration not stated)
EC50 [1]: 0.303 µM (active)
EC50 (Protein RecA): > 380 µM (inactive)
AC50 [3]: > 380 µM (inactive)
EC50 [2]: > 60 µM (not active)

CCN1CCCC1Cn1cnc2c3cc(C)ccc3nc-2c1O (configuration not stated)
AC50 (Cytochrome P450 3A4): 22.4 µM (inconclusive)

O=C(Nc1cccc(F)c1)N1CC[C@@]2(CCCN(C(=O)c3cc(C(F)(F)F)cc(C(F)(F)F)c3)C2)C1
AC50 (Cytochrome P450 2C19; read-out: AC50): 25.1 µM (inconclusive)

COc1ccc(OC)c(C2C(C#N)=C(N)Oc3c2c(C)nn3-c2cccc(Cl)c2)c1 (configuration not stated)
EC50 (Protein RecA): 6.94 µM (active)
AC50 [3]: > 380 µM (inactive)

CN(C)CCn1c(=O)n(Cc2ccccc2)c(=O)c2c3c(sc21)CCCCC3
EC50 [1]: 0.505 µM (active)
EC50 [2]: > 60 µM (not active)

COc1ccc(-n2cc(CN(C)C(C)c3ccncn3)c(-c3cccc(F)c3)n2)cc1 (configuration not stated)
EC50 [1]: 2.99 µM (active)
EC50 [2]: > 60 µM (not active)

Cc1cc(S(=O)(=O)Nc2ccc(C(=O)NCC(c3ccco3)N3CCCC3)cc2)ccc1F (configuration not stated)
EC50 [1]: 0.578 µM (active)
EC50 [2]: > 60 µM (not active)

O=C(Oc1cccc(OC(=O)c2ccco2)c1)c1ccco1
EC50 (Protein RecA): 19.8 µM (active)
AC50 [3]: 2.88 µM (active)

Cc1ccc(-c2cn(S(=O)(=O)c3cccc([N+](=O)[O-])c3)nc2N)cc1
EC50 [1]: 1.03 µM (active)
EC50 [2]: > 30 µM (not active)

CCn1c(S)nnc1-c1ccc2ncccc2c1
AC50 (Cytochrome P450 3A4): 3.98 µM (inconclusive)
AC50 (Cytochrome P450 2C19; read-out: AC50): 20 µM (inconclusive)

CCCCn1c(-c2cccc3ccccc23)nc2cc3nc(O)c(C(C)C)nc3cc21
EC50 [1]: 1.08 µM (active)
EC50 [2]: > 60 µM (not active)

O=C(Nc1cccc(F)c1)N1CCCC2(CCN(C(=O)c3cnccn3)CC2)C1
AC50 (Cytochrome P450 2C19; read-out: AC50): 20 µM (inconclusive)

COc1ccc(C(=O)N2CCC3(CCCN(C(=O)Nc4cccc(F)c4)C3)CC2)cc1
AC50 (Cytochrome P450 2C19; read-out: AC50): 39.8 µM (inconclusive)

Cc1ccccc1N1C(=O)c2ccccc2C1Nc1cccnc1 (configuration not stated)
EC50 (Protein RecA): > 380 µM (inactive)
AC50 [3]: > 380 µM (inactive)

CSc1nc(C)c2c(n1)N(c1ccc(C(F)(F)F)cc1)CC2
AC50 (Cytochrome P450 2C19; read-out: AC50): 11.2 µM (inconclusive)

COc1cc(/C=C(/NC(=O)c2ccccc2Cl)C(=O)O)cc(OC)c1OC
AC50 (Cytochrome P450 3A4): 14.1 µM (inconclusive)

COc1cc(/C=N/NC(=S)Nc2cccc(Cl)c2C)ccc1OCC(=O)N1CC(C)OC(C)C1 (configuration not stated)
EC50 (Protein RecA): 4 µM (active)
AC50 [3]: 17.5 µM (active)

CC(C)Oc1c(Br)cc(Br)cc1/C=N/NC(N)=S
EC50 [1]: 1.35 µM (active)
EC50 [2]: > 30 µM (not active)

C/C(=N\NC(N)=S)C1=CCC2C3CC[C@H]4CC(O)CC[C@]4(C)C3CC[C@]12C (some centres not stated)
EC50 [1]: 0.159 µM (active)
EC50 [2]: 9.97 µM (active)

Brc1ccc(-c2ccc(/C=N/Nc3nc4ccccc4[nH]3)o2)cc1
EC50 [1]: 1.03 µM (active)
EC50 [2]: > 60 µM (not active)

CCOc1cc(/C=N/n2cnnc2)c(Br)cc1O
AC50 (Cytochrome P450 3A4): 14.1 µM (inconclusive)

CC1=C(C(=O)OCc2ccccc2)C(c2ccc(Cl)cc2)NC(=O)N1CCCCCC(=O)O (configuration not stated)
AC50 (Cytochrome P450 3A4): 10 µM (inconclusive)
AC50 (Cytochrome P450 2C19; read-out: AC50): 39.8 µM (inconclusive)
